Assay results from PubChem BioAssay (NCI).
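Five compound concentrations were applied to cells in 96-well plates for 48 hours; endpoints were derived by simple linear interpolation of the resulting dose-response curve. GI50: concentration for 50% inhibition of growth. At the TGI there is no net growth.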

What was measured:
Test in all cases: NCI-60 cell line screen, 48 h
A549 NSCLC = tested on: A549 NSCLC
HCC-2998 colon = tested on: HCC-2998 colon
HL-60(TB) leukemia = tested on: HL-60(TB) leukemia
SNB-19 CNS = tested on: SNB-19 CNS
SNB-75 CNS = tested on: SNB-75 CNS
OVCAR-8 ovarian = tested on: OVCAR-8 ovarian
TK-10 renal = tested on: TK-10 renal
SK-MEL-5 melanoma = tested on: SK-MEL-5 melanoma
SK-OV-3 ovarian = tested on: SK-OV-3 ovarian
HOP-62 NSCLC = tested on: HOP-62 NSCLC
SR leukemia = tested on: SR leukemia
HT29 colon = tested on: HT29 colon
IGROV1 ovarian = tested on: IGROV1 ovarian
MDA-MB-231 breast = tested on: MDA-MB-231 breast
RPMI-8226 leukemia = tested on: RPMI-8226 leukemia
K-562 leukemia = tested on: K-562 leukemia
PC-3 prostate = tested on: PC-3 prostate
SN12C renal = tested on: SN12C renal
U251 CNS = tested on: U251 CNS
SK-MEL-2 melanoma = tested on: SK-MEL-2 melanoma
DU-145 prostate = tested on: DU-145 prostate
UACC-257 melanoma = tested on: UACC-257 melanoma
EKVX NSCLC = tested on: EKVX NSCLC
KM12 colon = tested on: KM12 colon
ACHN renal = tested on: ACHN renal
UO-31 renal = tested on: UO-31 renal
OVCAR-4 ovarian = tested on: OVCAR-4 ovarian
NCI-H460 lung = tested on: NCI-H460 lung
T-47D breast = tested on: T-47D breast
MALME-3M melanoma = tested on: MALME-3M melanoma
HS 578T breast = tested on: HS 578T breast
UACC-62 melanoma = tested on: UACC-62 melanoma
NCI-H23 lung = tested on: NCI-H23 lung
MCF7 breast = tested on: MCF7 breast
HCT-116 colon = tested on: HCT-116 colon
HOP-92 NSCLC = tested on: HOP-92 NSCLC
OVCAR-5 ovarian = tested on: OVCAR-5 ovarian
M14 melanoma = tested on: M14 melanoma
MDA-MB-435 = tested on: MDA-MB-435
SF-295 CNS = tested on: SF-295 CNS
SK-MEL-28 melanoma = tested on: SK-MEL-28 melanoma
NCI/ADR-RES ovarian = tested on: NCI/ADR-RES ovarian
SF-539 CNS = tested on: SF-539 CNS
COLO 205 colon = tested on: COLO 205 colon
NCI-H226 lung = tested on: NCI-H226 lung
SW-620 colon = tested on: SW-620 colon
SF-268 CNS = tested on: SF-268 CNS
LOX IMVI melanoma = tested on: LOX IMVI melanoma
CCRF-CEM leukemia = tested on: CCRF-CEM leukemia
MOLT-4 leukemia = tested on: MOLT-4 leukemia
HCT-15 colon = tested on: HCT-15 colon
RXF 393 renal = tested on: RXF 393 renal
NCI-H522 lung = tested on: NCI-H522 lung
BT-549 breast = tested on: BT-549 breast
CAKI-1 renal = tested on: CAKI-1 renal
A498 renal = tested on: A498 renal
786-0 renal = tested on: 786-0 renal

SMILES: CCN1CCN(c2ccc(NC(=O)Nc3ccc4c(ccn4-c4ccnc(C(=O)NC)c4)c3)cc2C(F)(F)F)CC1
- GI50 (A549 NSCLC): 2.28 µM
- TGI (A549 NSCLC): 4.5 µM
- GI50 (HCC-2998 colon): 2.47 µM
- TGI (HCC-2998 colon): 4.54 µM
- GI50 (HL-60(TB) leukemia): 2.66 µM
- TGI (HL-60(TB) leukemia): 6.11 µM
- GI50 (SNB-19 CNS): 2.36 µM
- TGI (SNB-19 CNS): 4.81 µM
- GI50 (SNB-75 CNS): 5.22 µM
- TGI (SNB-75 CNS): > 14.3 µM
- GI50 (OVCAR-8 ovarian): 2.62 µM
- TGI (OVCAR-8 ovarian): 5.49 µM
- GI50 (TK-10 renal): 2.68 µM
- TGI (TK-10 renal): 4.82 µM
- GI50 (SK-MEL-5 melanoma): 2.52 µM
- TGI (SK-MEL-5 melanoma): 4.56 µM
- GI50 (SK-OV-3 ovarian): > 14.3 µM
- TGI (SK-OV-3 ovarian): > 14.3 µM
- GI50 (HOP-62 NSCLC): 2.13 µM
- TGI (HOP-62 NSCLC): 4.3 µM
- GI50 (SR leukemia): 0.644 µM
- TGI (SR leukemia): 3.22 µM
- GI50 (HT29 colon): 1.07 µM
- TGI (HT29 colon): 3.22 µM
- GI50 (IGROV1 ovarian): 2.67 µM
- TGI (IGROV1 ovarian): 5.61 µM
- GI50 (MDA-MB-231 breast): 2.53 µM
- TGI (MDA-MB-231 breast): 5.01 µM
- GI50 (RPMI-8226 leukemia): 1.57 µM
- TGI (RPMI-8226 leukemia): > 14.3 µM
- GI50 (K-562 leukemia): 0.793 µM
- TGI (K-562 leukemia): 4.14 µM
- GI50 (PC-3 prostate): 2.34 µM
- TGI (PC-3 prostate): 7.38 µM
- GI50 (SN12C renal): > 14.3 µM
- TGI (SN12C renal): > 14.3 µM
- GI50 (U251 CNS): 1.64 µM
- TGI (U251 CNS): 3.53 µM
- GI50 (SK-MEL-2 melanoma): 12.6 µM
- TGI (SK-MEL-2 melanoma): > 14.3 µM
- GI50 (DU-145 prostate): 2.59 µM
- TGI (DU-145 prostate): 4.88 µM
- GI50 (UACC-257 melanoma): 2.45 µM
- TGI (UACC-257 melanoma): 4.68 µM
- GI50 (EKVX NSCLC): 2.27 µM
- TGI (EKVX NSCLC): 4.47 µM
- GI50 (KM12 colon): 0.741 µM
- TGI (KM12 colon): 2.85 µM
- GI50 (ACHN renal): 2.56 µM
- TGI (ACHN renal): 4.55 µM
- GI50 (UO-31 renal): 2.23 µM
- TGI (UO-31 renal): 4.21 µM
- GI50 (OVCAR-4 ovarian): 2.65 µM
- TGI (OVCAR-4 ovarian): 5.86 µM
- GI50 (NCI-H460 lung): 2.59 µM
- TGI (NCI-H460 lung): 5.03 µM
- GI50 (T-47D breast): > 14.3 µM
- TGI (T-47D breast): > 14.3 µM
- GI50 (MALME-3M melanoma): 2.07 µM
- TGI (MALME-3M melanoma): 4.22 µM
- GI50 (HS 578T breast): 2.5 µM
- TGI (HS 578T breast): 13.7 µM
- GI50 (UACC-62 melanoma): 2.34 µM
- TGI (UACC-62 melanoma): 4.55 µM
- GI50 (NCI-H23 lung): 2.08 µM
- TGI (NCI-H23 lung): 4.23 µM
- GI50 (MCF7 breast): 2.15 µM
- TGI (MCF7 breast): 5.05 µM
- GI50 (HCT-116 colon): 2 µM
- TGI (HCT-116 colon): 3.88 µM
- GI50 (HOP-92 NSCLC): 1.55 µM
- TGI (HOP-92 NSCLC): 3.44 µM
- GI50 (OVCAR-5 ovarian): 11.4 µM
- TGI (OVCAR-5 ovarian): > 14.3 µM
- GI50 (M14 melanoma): 2.35 µM
- TGI (M14 melanoma): 4.36 µM
- GI50 (MDA-MB-435): 2.46 µM
- TGI (MDA-MB-435): 4.56 µM
- GI50 (SF-295 CNS): 0.925 µM
- TGI (SF-295 CNS): 2.85 µM
- GI50 (SK-MEL-28 melanoma): 2.28 µM
- TGI (SK-MEL-28 melanoma): 4.37 µM
- GI50 (NCI/ADR-RES ovarian): 3.08 µM
- TGI (NCI/ADR-RES ovarian): 7.44 µM
- GI50 (SF-539 CNS): 1.63 µM
- TGI (SF-539 CNS): 3.48 µM
- GI50 (COLO 205 colon): > 14.3 µM
- TGI (COLO 205 colon): > 14.3 µM
- GI50 (NCI-H226 lung): > 14.3 µM
- TGI (NCI-H226 lung): > 14.3 µM
- GI50 (SW-620 colon): 2.5 µM
- TGI (SW-620 colon): 4.79 µM
- GI50 (SF-268 CNS): 2.53 µM
- TGI (SF-268 CNS): 5.66 µM
- GI50 (LOX IMVI melanoma): 2.21 µM
- TGI (LOX IMVI melanoma): 4.22 µM
- GI50 (CCRF-CEM leukemia): 3.77 µM
- TGI (CCRF-CEM leukemia): > 14.3 µM
- GI50 (MOLT-4 leukemia): 1.79 µM
- TGI (MOLT-4 leukemia): 9.46 µM
- GI50 (HCT-15 colon): 1.04 µM
- TGI (HCT-15 colon): 3.35 µM
- GI50 (RXF 393 renal): 1.42 µM
- TGI (RXF 393 renal): 3.58 µM
- GI50 (NCI-H522 lung): > 14.3 µM
- TGI (NCI-H522 lung): > 14.3 µM
- GI50 (BT-549 breast): > 14.3 µM
- TGI (BT-549 breast): > 14.3 µM
- GI50 (CAKI-1 renal): 2.68 µM
- TGI (CAKI-1 renal): 5.07 µM
- GI50 (A498 renal): 13.5 µM
- TGI (A498 renal): > 14.3 µM
- GI50 (786-0 renal): 1.73 µM
- TGI (786-0 renal): 3.63 µM
